Here are results for six compounds from publication PMC4992826, “Male tarsi specific odorant-binding proteins in the diving beetle Cybister japonicus sharp” (Scientific Reports, 2016).

Assay [1] concerns the target T1, CjapOBP2 (Cybister japonicus, UniProt A0A1Q1N694). Put plainly: Competitive fluorescence binding assay with 1-NPN as reporter. The note with it: protein 5 μM, 1-NPN 2 μM, competitor up to 16 μM. The source says:
(§1) To characterize the ligand-binding properties of the two OBPs, we performed fluorescence binding assays with several chemicals having different structures using N-phenyl-1-naphthylamine (1-NPN) as a fluorescent reporter. In the absence of any information about potential semiochemicals for this insect, as well as for related species, we selected some common plant volatiles, such as citral, coniferyl aldehyde, eugenol and 2-isobutyl-3-mthoxypyrazine, and structurally similar compounds. 1-NPN binds CjapOBP1 and CjapOBP2 with dissociation constants of 3.3 and 2.1 μM respectively (Fig. 5A). Among the ligands tested, we identified a single good ligand for each protein, citral for CjapOBP1 and coniferyl aldehyde for CjapOBP2 (Fig. 5B,C).
(§2) Figure 5 Affinity of CjapOBPs to candidate chemical ligands. (A) Both CjapOBP1 and CjapOBP2 bind the fluorescent probe 1-NPN, with dissociation constants of 3.3 μM and 2.1 μM, respectively. (B) Competitive binding curves of selected ligands to the two CjapOBPs. Mixtures of proteins (5 μM) and 1-NPN (2 μM) were titrated with 1mM solutions of the ligands in methanol. […] (C) The chemical structures of the chemicals applied.
(§3) To measure the affinity of the fluorescent ligand N-phenyl-1-naphthylamine (1-NPN), a 2 μM solution of the protein in 50 mM Tris-HCl (pH 7.4) was titrated with aliquots of 1 mM 1-NPN in methanol to final concentrations of 1–16 μM. The probe was excited at 337 nm, and emission spectra were recorded between 380 and 450 nm. The affinity of other ligands was measured in competitive binding assays, using the protein and the fluorescent reporter 1-NPN at the concentration of 5 μM and 2 μM respectively, while increasing the final concentration of each competitor up to 16 μM. Dissociation constants for 1-NPN were evaluated from Scatchard plots of the binding data, and other ligands were calculated from the corresponding IC50 values, using the equation: KD = [IC50]/1+[1-NPN]/K1-NPN, [1-NPN] being the free concentration of 1-NPN and K1-NPN being the dissociation constant of the complex protein/1-NPN.

Assay [2] has as its target T2, CjapOBP1 (Cybister japonicus, UniProt A0A1Q1N696).
T2 sequence (A0A1Q1N696 17-136): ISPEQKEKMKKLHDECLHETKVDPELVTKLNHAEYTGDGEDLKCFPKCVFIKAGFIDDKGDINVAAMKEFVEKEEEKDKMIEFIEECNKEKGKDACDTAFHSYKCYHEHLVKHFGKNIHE
The description is as above. The note with it: protein 5 μM, 1-NPN 2 μM, competitor up to 16 μM.
Excerpt: as §1, §2, §3

In assay [3] the target is T2, CjapOBP1. The assay is described as follows: Fluorescence binding assay, direct titration with 1-NPN. The note with it: recombinant CjapOBP1, 2 μM protein in 50 mM Tris-HCl pH 7.4, titrated with 1-NPN 1–16 μM; Scatchard plot; read-out: dissociation constant.
Excerpt: as §1, §2
(§4) To measure the affinity of the fluorescent ligand N-phenyl-1-naphthylamine (1-NPN), a 2 μM solution of the protein in 50 mM Tris-HCl (pH 7.4) was titrated with aliquots of 1 mM 1-NPN in methanol to final concentrations of 1–16 μM. […]

For assay [4], the target named is T1, CjapOBP2. Described as above. The note with it: recombinant CjapOBP2, 2 μM protein in 50 mM Tris-HCl pH 7.4, titrated with 1-NPN 1–16 μM; Scatchard plot; read-out: dissociation constant.
Excerpt: as §1, §2, §4

pKd: −log10 of the molar value.

T1 sequence (A0A1Q1N694 entry or part of it): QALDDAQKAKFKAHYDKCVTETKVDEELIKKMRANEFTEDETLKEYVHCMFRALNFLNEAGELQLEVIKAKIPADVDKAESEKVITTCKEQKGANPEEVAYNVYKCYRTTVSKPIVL

Consider `COc1cc(CCC(=O)O)ccc1O` [dihydroferulic acid], for which the “binding to CjapOBP2 (displacement of 1-NPN)” value (from here on “binding to CjapOBP2”) on CjapOBP2 [1] is reported as “did not show appreciable binding”.

`CO/C(C=O)=C\c1ccccc1` [α-methoxycinnamaldehyde]: the “binding to CjapOBP2” value at CjapOBP2 [1] is recorded as “did not show appreciable binding”.

With `CC(C)=CCCC(C)=CC=O` (mixture of isomers) [citral], the “binding to CjapOBP1 (displacement of 1-NPN)” value at CjapOBP1 [2] is “good ligand”.

As for `c1ccc(Nc2cccc3ccccc23)cc1` [1-NPN, N-phenyl-1-naphthylamine], the pKd on CjapOBP1 [3] was 5.48; on CjapOBP2 [4] it was 5.68.

On to `COc1cc(/C=C/C=O)ccc1O` [coniferyl aldehyde], for which the “binding to CjapOBP2” value on CjapOBP2 [1] is reported as “good ligand”.

Turning to `C=CCc1ccc(O)c(OC)c1` [eugenol], the “binding to CjapOBP2” value at CjapOBP2 [1] was “did not show appreciable binding”.
